Measured values: patent US20050101595A1, “N-containing cycloalkyl-substituted amino-thiazole derivatives and pharmaceutical compositions for inhibiting cell proliferation and methods for their use” (PFIZER INC., priority 2003, published 2005)
Structures can show the parent of a compound that is named as a salt. Where two headings read alike, the source gives them in different places.

Tests used:
[1] = tested on: HCT-116 cell line; test: Inhibition of cell growth, tetrazolium salt (MTT) assay; format: cell-based; conditions: for HCT-116 % Inhibition at 0.25 μM: 0.25 μM compound; for IC50: HCT-116, 120 h, MTT, three to five days, read-out: HCT-116 IC50
Procedure, shortened: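 HCT-116 cells in McCoy's 5A medium received compound 4 h after plating (0.5% v/v DMSO) and were incubated three to five days at 37° C, 5% CO2. MTT (0.2 mg/mL final) then added for 4 h; DMSO-solubilized formazan read at 540 nm against 0.5% DMSO-treated controls.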

[2] = biological target: CDK2/Cyclin A (Homo sapiens, UniProt P24941); test: Inhibition of CDK2/Cyclin A Retinoblastoma Kinase Activity; format: biochemical; conditions: for Ki: apparent Ki, CDK2/proteolyzed cyclin A, Rb fragment substrate, 25 μM ATP
Procedure, shortened: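 Baculovirus-expressed CDK2 complexed with proteolyzed cyclin A (10 or 19 nM), Rb fragment substrate, 25 μM [32P/33P]ATP, HEPES pH 7.4, 30 °C for 60 or 75 min under initial-rate conditions. Filter capture and phosphorimager readout; apparent Ki fitted to competitive or tight-binding competitive inhibition.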

[3] = biological target: human CDK4 and genetically truncated (1-264) cyclin D3 (Homo sapiens, UniProt P11802); test: Inhibition of CDK4/Cyclin D Retinoblastoma Kinase Activity; format: biochemical; conditions: for Ki: apparent Ki, CDK4/truncated cyclin D3, Rb fragment substrate, 25 μM ATP
Procedure, shortened: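 Human CDK4/truncated cyclin D3 (1-264) complex from baculovirus-infected insect cells, 5 nM, phosphorylating Rb fragment (residues 386-928, His-tagged) with 25 μM [32/33P]ATP in HEPES pH 7.4, MgCl2, 2% DMSO at 30° C. for 20 min (60 min for tight binders). Filter-captured radioactivity by phosphorimager; apparent Ki from competitive or tight-binding fits.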

[4] = Homo sapiens, first HCT-116 column (c4)
[5] = Homo sapiens, second HCT-116 column (c5)
[6] = 0.1 μM compound, HCT-116, Table 3

human CDK4 and genetically truncated (1-264) cyclin D3, sequence (P11802 whole entry, the tested form may be a part): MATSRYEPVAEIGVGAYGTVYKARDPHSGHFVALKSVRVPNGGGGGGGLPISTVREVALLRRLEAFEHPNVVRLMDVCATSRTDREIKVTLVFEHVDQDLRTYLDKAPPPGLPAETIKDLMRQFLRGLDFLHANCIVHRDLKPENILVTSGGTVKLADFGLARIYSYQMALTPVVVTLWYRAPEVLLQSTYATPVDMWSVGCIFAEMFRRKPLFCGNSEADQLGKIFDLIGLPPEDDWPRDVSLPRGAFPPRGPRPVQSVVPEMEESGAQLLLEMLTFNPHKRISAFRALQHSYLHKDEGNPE
human CDK4 and genetically truncated (1-264) cyclin D3, sequence (P30281 1-264 partner): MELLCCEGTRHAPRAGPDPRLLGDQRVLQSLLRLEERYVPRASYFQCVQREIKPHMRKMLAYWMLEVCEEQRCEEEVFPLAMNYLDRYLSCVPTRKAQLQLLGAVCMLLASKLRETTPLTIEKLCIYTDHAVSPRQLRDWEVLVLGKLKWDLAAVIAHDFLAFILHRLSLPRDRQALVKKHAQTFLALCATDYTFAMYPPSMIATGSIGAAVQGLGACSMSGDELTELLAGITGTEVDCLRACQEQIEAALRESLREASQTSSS

`COC(=O)[C@H](CC(C)C)NC(=O)N1CCC(Nc2nc(N)c(C(=O)c3c(F)cccc3F)s2)CC1` [Example O77] was tested, and the “HCT-116 % Inhibition at 0.25 μM” value ([1]; HCT-116, Table 2) was 43%, the “CDK2 % Inhibition At 0.03 μM” value ([2]; 0.03 μM compound, Table 2) was 24% and the “CDK4 % Inhibition at 0.03 μM” value ([3]; 0.03 μM compound, Table 2) was 8%.

`Cc1ccc(C)c(NC(=O)N2CCC(Nc3nc(N)c(C(=O)c4c(F)cccc4F)s3)CC2)c1` [Example O42] was tested, and the “HCT-116 % Inhibition at 0.25 μM” value ([1]; HCT-116, Table 2) was 26%, the “CDK2 % Inhibition At 0.03 μM” value ([2]; 0.03 μM compound, Table 2) was 35% and the “CDK4 % Inhibition at 0.03 μM” value ([3]; 0.03 μM compound, Table 2) was 10%.

For `Nc1nc(NC2CCN(C(=O)c3cnc4ccccc4n3)CC2)sc1C(=O)c1c(F)cccc1F` [Example Q67], the “HCT-116 % Inhibition at 0.1 μM” value ([1]; 0.1 μM compound, HCT-116, Table 4) was 9%, the “HCT-116 % Inhibition at 0.25 μM” value ([1]; HCT-116, Table 4) was 30% and the “CDK2 % Inhibition at 0.03 μM” value ([2]; 0.03 μM compound, Table 4) was 13%. For the same compound, the “CDK4 % Inhibition at 0.03 μM” value ([3]; 0.03 μM compound, Table 4) was 50%.

With `Nc1nc(NC2CCN(C(=O)NC3C[C@H]3c3ccccc3)CC2)sc1C(=O)c1c(F)cccc1F` (stereo partly shown) [Example O1] the inhibition at 0.25 µM ([1]; Homo sapiens, HCT-116, 0.25 μM compound, HCT-116, Table 2, read-out: HCT-116 % Inhibition at 0.25 μM) was 0%, the inhibition at 0.03 µM ([2]; 0.03 μM compound, Table 2) was 30% and the inhibition at 0.03 µM ([3]; 0.03 μM compound, Table 2) was -4%.

With `Nc1nc(NC2CCN(C(=O)c3ccc(Cl)cc3Cl)CC2)sc1C(=O)c1c(F)cccc1F` [Example R107] the “HCT-116 % Inhibition at 0.1 μM” value ([1]; HCT-116 cells, at 0.1 μM) was 8%, the “HCT-116 5 Inhibition at 0.25 μM” value ([1]; HCT-116 cells) was 48 and the “CDK2 % Inhibition at 0.03 μM” value ([2]; at 0.03 μM) was 44%. For the same compound, the “CDK4 % Inhibition at 0.03 μM” value ([3]; at 0.03 μM) was 63%.

In the case of `Nc1nc(NC2CCN(S(=O)(=O)c3ccc(Sc4ccccn4)nc3)CC2)sc1C(=O)c1c(F)cccc1F` [Example L2, 1-(4-Amino-2-{1-[6-(pyridin-2-ylsulfanyl)-pyridine-3-sulfonyl]-piperidin-4-ylamino}-thiazol-5-yl)-1-(2,6-difluoro-phenyl)-methanone Dihydrochloride.], the IC50 [1, 4] is reported as > 500 nM, the IC50 [1, 5] is reported as > 500 nM and the Ki [2] is reported as 1.5 nM. For the same compound, the Ki [3] was 2.7 nM.

With `Nc1nc(NC2CCN(S(=O)(=O)c3cc(OCC(F)(F)F)ccc3OCC(F)(F)F)CC2)sc1C(=O)c1c(F)cccc1F` [Example P54] the “HCT-116 % Inhibition at 0.1 μM” value [1, 6] was 22%, the “HCT-116 % Inhibition at 0.25 μM” value ([1]; HCT-116, Table 3) was 23% and the “CDK2 % Inhibition at 0.03 μM” value ([2]; 0.03 μM compound, Table 3) was 17%. For the same compound, the “CDK4 % Inhibition at 0.03 μM” value ([3]; 0.03 μM compound, Table 3) was 34%.

For `Nc1nc(NC2CCN(C(=O)Nc3ccc(Cl)c(C(F)(F)F)c3)CC2)sc1C(=O)c1c(F)cccc1F` [Example O51], the “HCT-116 % Inhibition at 0.25 μM” value ([1]; HCT-116, Table 2) was 11%, the “CDK2 % Inhibition At 0.03 μM” value ([2]; 0.03 μM compound, Table 2) was 30% and the “CDK4 % Inhibition at 0.03 μM” value ([3]; 0.03 μM compound, Table 2) was 7%.

`Nc1nc(NC2CCN(S(=O)(=O)c3ccc(CN4CCOCC4)cc3)CC2)sc1C(=O)c1c(F)cccc1F` [Example J8, 1-{4-Amino-2-[1-(4-morpholin4-ylmethyl-benzenzsulfonyl)-piperidin-4-ylamino]-thiazol-5-yl}-1-(2,6-difluoro-phenyl)-methanone Hydrochloride Salt] showed an IC50 [1, 4] of 98 nM, an IC50 [1, 5] of 400 nM and a Ki [2] of 1.3 nM. The Ki [3] was 1.2 nM.

With `COC(=O)c1ccc(C(=O)N2CCC(Nc3nc(N)c(C(=O)c4c(F)cccc4F)s3)CC2)cc1` [Example R33] the “HCT-116 % Inhibition at 0.1 μM” value ([1]; HCT-116 cells, at 0.1 μM) was 1%, the “HCT-116 5 Inhibition at 0.25 μM” value ([1]; HCT-116 cells) was 49 and the “CDK2 % Inhibition at 0.03 μM” value ([2]; at 0.03 μM) was 58%. For the same compound, the “CDK4 % Inhibition at 0.03 μM” value ([3]; at 0.03 μM) was 80%.

With `CN(CCS(=O)(=O)N1CCC(Nc2nc(N)c(C(=O)c3c(F)cccc3F)s2)CC1)c1ccccc1` [Example K37, (4-Amino-2-{1-[2-(methyl-phenyl-amino)-ethanesulfonyl]-piperidin-4-ylamino}-thiazol-5-yl)-(2,6-difluoro-phenyl)-methanone Trifluoroacetic Acid Salt.] the IC50 [1, 4] was 310 nM, the IC50 [1, 5] was 1300 nM and the Ki [2] was 7 nM. For the same compound, the Ki [3] was 3.2 nM.

With `Cc1ccc(C)c(C(=O)N2CCC(Nc3nc(N)c(C(=O)c4c(F)cccc4F)s3)CC2)c1` [Example R128] the “HCT-116 % Inhibition at 0.1 μM” value ([1]; HCT-116 cells, at 0.1 μM) was 0%, the “HCT-116 5 Inhibition at 0.25 μM” value ([1]; HCT-116 cells) was 56 and the “CDK2 % Inhibition at 0.03 μM” value ([2]; at 0.03 μM) was 14%. The “CDK4 % Inhibition at 0.03 μM” value ([3]; at 0.03 μM) was 7%.

`CCCCC(C)C(=O)N1CCC(Nc2nc(N)c(C(=O)c3c(F)cccc3F)s2)CC1` (stereo not shown) [Example R167] was tested, and the “HCT-116 % Inhibition at 0.1 μM” value ([1]; HCT-116 cells, at 0.1 μM) was 0%, the “HCT-116 5 Inhibition at 0.25 μM” value ([1]; HCT-116 cells) was 42 and the “CDK2 % Inhibition at 0.03 μM” value ([2]; at 0.03 μM) was −2%. The “CDK4 % Inhibition at 0.03 μM” value ([3]; at 0.03 μM) was 11%.

With `Nc1nc(NC2CCN(S(=O)(=O)c3ccc(Sc4ccncc4)cc3)CC2)sc1C(=O)c1c(F)cccc1F` [Example P87] the “HCT-116 % Inhibition at 0.1 μM” value [1, 6] was 9%, the “HCT-116 % Inhibition at 0.25 μM” value ([1]; HCT-116, Table 3) was 22% and the “CDK2 % Inhibition at 0.03 μM” value ([2]; 0.03 μM compound, Table 3) was −25%. The “CDK4 % Inhibition at 0.03 μM” value ([3]; 0.03 μM compound, Table 3) was −5%.
